The data set has as its system rodent lifetime carcinogenesis bioassay, tumor incidence TD50. In words: carcinogenic potency in animals, long-term in vivo studies, CPDB compilation (AID 1745844).

Activity calls are given as the source filed them. No rule for the calls is given here.

Broadly, the TD50 is the 50% point of the dose-response relation for the toxic effect studied. For the compound `CC(C)(C)c1cc(CO)cc(C(C)(C)C)c1O`, the TD50 reads like this: (rat, strain NZBW (hooded black and white strain), females, in feed, site: any site (literature study), lesion: several types, types named in the paper, dosed 104 weeks, study length 104 weeks) 3710 mg/kg/day (inactive); (rat, strain NZBW (hooded black and white strain), females, in feed, site: mammary gland, lesion: fibroadenoma, dosed 104 weeks, study length 104 weeks) 3710 mg/kg/day (inactive). Moreover, the carcinogen call (rat, strain NZBW (hooded black and white strain), males, in feed, site: any site (literature study), lesion: one or several types, types not named, dosed 104 weeks, study length 104 weeks) is “negative (inactive)”.
Turning to `CC1SC(C)N(N=O)C(C)S1` (centres undefined), the TD50 is, setting by setting: (rat, strain Fischer 344, females, by gavage, site: esophagus, lesion: squamous-cell carcinoma, dosed 43 weeks, study length 90 weeks) 1.63 mg/kg/day; (rat, strain Fischer 344, females, by gavage, site: esophagus, lesion: squamous-cell tumor, dosed 43 weeks, study length 90 weeks) 0.483 mg/kg/day; (rat, strain Fischer 344, females, by gavage, site: liver, lesion: cholangioma, dosed 43 weeks, study length 90 weeks) 3.58 mg/kg/day; (rat, strain Fischer 344, females, by gavage, site: liver, lesion: hepatocellular adenoma, dosed 43 weeks, study length 90 weeks) 2.61 mg/kg/day; (rat, strain Fischer 344, females, by gavage, site: tongue, lesion: squamous-cell tumor, dosed 43 weeks, study length 90 weeks) 1.53 mg/kg/day.
With `CN(C)C(=S)S[Se](SC(=S)N(C)C)(SC(=S)N(C)C)SC(=S)N(C)C`, the carcinogen call (mouse, strain B6AKF1, females, oral dosing, site: any site (literature study), lesion: several types, types named in the paper, dosed 76 weeks, study length 76 weeks) is “negative (inactive)”; the carcinogen call (mouse, strain B6AKF1, females, oral dosing, site: liver, lesion: hepatoma, dosed 76 weeks, study length 76 weeks) was “negative (inactive)”; the carcinogen call (mouse, strain B6AKF1, females, oral dosing, site: lung, lesion: adenoma, dosed 76 weeks, study length 76 weeks) was “negative (inactive)”; the carcinogen call (mouse, strain B6AKF1, males, oral dosing, site: any site (literature study), lesion: several types, types named in the paper, dosed 76 weeks, study length 76 weeks) was “negative (inactive)”; the carcinogen call (mouse, strain B6AKF1, males, oral dosing, site: liver, lesion: hepatoma, dosed 76 weeks, study length 76 weeks) was “negative (inactive)”; the carcinogen call (mouse, strain B6AKF1, males, oral dosing, site: lung, lesion: adenoma, dosed 76 weeks, study length 76 weeks) was “negative (inactive)”. In addition, the carcinogen call is, setting by setting: (mouse, strain B6C3F1, females, oral dosing, site: any site (literature study), lesion: one or several types, types not named, dosed 76 weeks, study length 76 weeks) “negative (inactive)”; (mouse, strain B6C3F1, females, oral dosing, site: liver, lesion: hepatoma, dosed 76 weeks, study length 76 weeks) “negative (inactive)”; (mouse, strain B6C3F1, females, oral dosing, site: lung, lesion: several types, types named in the paper, dosed 76 weeks, study length 76 weeks) “negative (inactive)”; (mouse, strain B6C3F1, males, oral dosing, site: lung, lesion: several types, types named in the paper, dosed 76 weeks, study length 76 weeks) “negative (inactive)”. For the same compound, the TD50 is 5.88 mg/kg/day (inactive) (mouse, strain B6C3F1, males, oral dosing, site: any site (literature study), lesion: several types, types named in the paper, dosed 76 weeks, study length 76 weeks) and 26 mg/kg/day (inactive) (mouse, strain B6C3F1, males, oral dosing, site: liver, lesion: hepatoma, dosed 76 weeks, study length 76 weeks).
Regarding `OB(O)O`, the carcinogen call (mouse, strain B6C3F1, females, in feed, site: any site (literature study), lesion: several types, types named in the paper, dosed 103 weeks, study length 105 weeks) was “negative (inactive)”. Also, the TD50 (mouse, strain B6C3F1, females, in feed, site: liver, lesion: hepatocellular adenoma + hepatocellular carcinoma + neoplastic nodule, dosed 103 weeks, study length 105 weeks) turned out to be 31000 mg/kg/day; the TD50 (mouse, strain B6C3F1, females, in feed, site: lung, lesion: alveolar/bronchiolar adenoma + alveolar/bronchiolar carcinoma, dosed 103 weeks, study length 105 weeks) turned out to be 4190 mg/kg/day; the TD50 (mouse, strain B6C3F1, males, in feed, site: any site (literature study), lesion: several types, types named in the paper, dosed 103 weeks, study length 105 weeks) amounted to 500 mg/kg/day; the TD50 (mouse, strain B6C3F1, males, in feed, site: liver, lesion: hepatocellular adenoma + hepatocellular carcinoma + neoplastic nodule, dosed 103 weeks, study length 105 weeks) came out at 638 mg/kg/day; the TD50 (mouse, strain B6C3F1, males, in feed, site: liver, lesion: hepatocellular adenoma + hepatocellular carcinoma, dosed 103 weeks, study length 105 weeks) is 638 mg/kg/day (inactive); the TD50 (mouse, strain B6C3F1, males, in feed, site: liver, lesion: hepatocellular carcinoma, dosed 103 weeks, study length 105 weeks) is 1120 mg/kg/day. Further, the TD50 reads like this: (mouse, strain B6C3F1, males, in feed, site: lung, lesion: alveolar/bronchiolar adenoma + alveolar/bronchiolar carcinoma, dosed 103 weeks, study length 105 weeks) 38600 mg/kg/day; (mouse, strain B6C3F1, males, in feed, site: subcutaneous tissue, lesion: fibrosarcoma + fibroma + neurofibrosarcoma + sarcoma, NOS, dosed 103 weeks, study length 105 weeks) 706 mg/kg/day; (mouse, strain B6C3F1, males, in feed, site: subcutaneous tissue, lesion: fibrosarcoma + neurofibrosarcoma + sarcoma, NOS, dosed 103 weeks, study length 105 weeks) 1070 mg/kg/day.
In the case of `CC(=O)C(N=Nc1ccc(Cl)cc1Cl)C(=O)Nc1ccc(-c2ccc(NC(=O)C(N=Nc3ccc(Cl)cc3Cl)C(C)=O)c(C)c2)cc1C` (centres undefined), the TD50 by setting is: (mouse, strain NMRI, both sexes, in feed, site: any site (literature study), lesion: one or several types, types not named, dosed 104 weeks, study length 104 weeks) 11700 mg/kg/day (inactive); (rat, strain Sprague-Dawley, both sexes, in feed, site: any site (literature study), lesion: one or several types, types not named, dosed 104 weeks, study length 104 weeks) 13700 mg/kg/day (inactive).
For the compound `CN(CCCO)N=O`, the TD50 was 3.48 mg/kg/day (rat, strain Fischer 344, females, by gavage, site: liver, lesion: neoplastic nodule, dosed 130 weeks, study length 130 weeks); 14.4 mg/kg/day (rat, strain Fischer 344, females, by gavage, site: lung, lesion: alveolar/bronchiolar adenoma, dosed 130 weeks, study length 130 weeks); 24.9 mg/kg/day (rat, strain Fischer 344, females, by gavage, site: lung, lesion: alveolar/bronchiolar carcinoma, dosed 130 weeks, study length 130 weeks); 8.06 mg/kg/day (rat, strain Fischer 344, females, by gavage, site: lung, lesion: several types, types named in the paper, dosed 130 weeks, study length 130 weeks); 4.78 mg/kg/day (rat, strain Fischer 344, males, by gavage, site: liver, lesion: neoplastic nodule, dosed 130 weeks, study length 130 weeks); 8.46 mg/kg/day (rat, strain Fischer 344, males, by gavage, site: lung, lesion: alveolar/bronchiolar adenoma, dosed 130 weeks, study length 130 weeks). The TD50 by setting is: (rat, strain Fischer 344, males, by gavage, site: lung, lesion: alveolar/bronchiolar carcinoma, dosed 130 weeks, study length 130 weeks) 2.46 mg/kg/day; (rat, strain Fischer 344, males, by gavage, site: lung, lesion: several types, types named in the paper, dosed 130 weeks, study length 130 weeks) 1.09 mg/kg/day; (rat, strain Fischer 344, males, by gavage, site: testis, lesion: interstitial-cell tumor, dosed 130 weeks, study length 130 weeks) 2.26 mg/kg/day.
With `CCn1cc(C(=O)O)c(=O)c2ccc(C)nc21`, the TD50 (mouse, strain B6C3F1, females, in feed, site: adrenal medulla, lesion: pheochromocytoma, dosed 103 weeks, study length 104 weeks) is 3630 mg/kg/day (inactive); the TD50 (mouse, strain B6C3F1, females, in feed, site: any site (literature study), lesion: several types, types named in the paper, dosed 103 weeks, study length 104 weeks) is 1690 mg/kg/day; the TD50 (mouse, strain B6C3F1, females, in feed, site: liver, lesion: hepatocellular adenoma + hepatocellular carcinoma + neoplastic nodule, dosed 103 weeks, study length 104 weeks) was determined as 3160 mg/kg/day; the TD50 (mouse, strain B6C3F1, females, in feed, site: lung, lesion: alveolar/bronchiolar adenoma + alveolar/bronchiolar carcinoma, dosed 103 weeks, study length 104 weeks) is 4900 mg/kg/day; the TD50 (mouse, strain B6C3F1, males, in feed, site: any site (literature study), lesion: several types, types named in the paper, dosed 103 weeks, study length 104 weeks) was 1330 mg/kg/day; the TD50 (mouse, strain B6C3F1, males, in feed, site: lung, lesion: alveolar/bronchiolar adenoma + alveolar/bronchiolar carcinoma, dosed 103 weeks, study length 104 weeks) came out at 4600 mg/kg/day. The TD50 is, setting by setting: (mouse, strain B6C3F1, males, in feed, site: subcutaneous tissue, lesion: fibrosarcoma + fibroma, dosed 103 weeks, study length 104 weeks) 1210 mg/kg/day; (mouse, strain CDF1, females, in feed, site: liver, lesion: hepatocellular adenoma, dosed 76 weeks, study length 85 weeks) 6450 mg/kg/day (inactive); (mouse, strain CDF1, females, in feed, site: lung, lesion: adenocarcinoma, dosed 76 weeks, study length 85 weeks) 1770 mg/kg/day (inactive); (mouse, strain CDF1, males, in feed, site: liver, lesion: hepatocellular carcinoma, dosed 76 weeks, study length 85 weeks) 1940 mg/kg/day (inactive); (mouse, strain CDF1, males, in feed, site: liver, lesion: several types, types named in the paper, dosed 76 weeks, study length 85 weeks) 3100 mg/kg/day (inactive); (mouse, strain CDF1, males, in feed, site: lung, lesion: adenocarcinoma, dosed 76 weeks, study length 85 weeks) 3980 mg/kg/day (inactive). In addition, the TD50 is, setting by setting: (rat, strain Fischer 344, females, in feed, site: clitoral gland, lesion: adenoma, NOS + carcinoma, NOS + papillary carcinoma + papilloma, NOS, dosed 103 weeks, study length 104 weeks) 372 mg/kg/day; (rat, strain Fischer 344, males, in feed, site: any site (literature study), lesion: several types, types named in the paper, dosed 103 weeks, study length 104 weeks) 7600 mg/kg/day; (rat, strain Fischer 344, males, in feed, site: preputial gland, lesion: adenoma, NOS + carcinoma, NOS + papilloma, NOS, dosed 103 weeks, study length 104 weeks) 138 mg/kg/day; (rat, strain Fischer 344, males, in feed, site: preputial gland, lesion: adenoma, NOS + papilloma, NOS, dosed 103 weeks, study length 104 weeks) 358 mg/kg/day; (rat, strain Fischer 344, males, in feed, site: preputial gland, lesion: adenoma, NOS, dosed 103 weeks, study length 104 weeks) 301 mg/kg/day; (rat, strain Fischer 344, males, in feed, site: preputial gland, lesion: carcinoma, NOS, dosed 103 weeks, study length 104 weeks) 211 mg/kg/day. Besides, the carcinogen call by setting is: (mouse, strain CDF1, females, in feed, site: any site (literature study), lesion: one or several types, types not named, dosed 76 weeks, study length 85 weeks) “negative (inactive)”; (mouse, strain CDF1, females, in feed, site: lung, lesion: several types, types named in the paper, dosed 76 weeks, study length 85 weeks) “negative (inactive)”; (mouse, strain CDF1, males, in feed, site: any site (literature study), lesion: one or several types, types not named, dosed 76 weeks, study length 85 weeks) “negative (inactive)”; (mouse, strain CDF1, males, in feed, site: liver, lesion: hepatocellular adenoma, dosed 76 weeks, study length 85 weeks) “negative (inactive)”; (mouse, strain CDF1, males, in feed, site: lung, lesion: several types, types named in the paper, dosed 76 weeks, study length 85 weeks) “negative (inactive)”.

The values above are taken from PubChem BioAssay AID1745844 (Carcinogenic Potency Database (CPDB), 2022).
